According to US20220266206A1, “FORMULATION AND PROCESS FOR MANUFACTURING A HEAT STABLE OIL-IN-WATER EMULSION FOR CANNABIS BEVERAGES IN PLASTIC BOTTLES” (Gaia Botanicals LLC DBA Bluebird Botanicals, priority 2021, published 2022):

Test: Solubility of CBD in MCT oil (fractionated coconut oil)
Type: physicochemical
Conditions: carrier oil: fractionated coconut oil (MCT oil)
Source text: In first mixing step 100, cannabinoid extract may be advantageously dissolved into a carrier oil to create oil phase 150. An aspect of the current invention is the use of a carrier oil, which overcomes the issues of aqueous solubility for the cannabinoid extract, particularly CBD. In its pure form, CBD is a non-polar crystalline solid which in the absence of an oil or alcohol will not readily dissolve to form a stable emulsion with the gum blend. By dissolving the CBD in a carrier oil in first mixing step 100, the CBD will be readily dissolved into the oil which increases its suitability for emulsion formation. In an embodiment of the invention, CBD is added to fractionated coconut oil (MCT oil) in first mixing step 100 using an immersion blender to thoroughly mix, then the mixture is transferred to a magnetic stir plate to allow for slow gentle mixing of the oil until the CBD is completely dissolved. First mixing step 100 can comprise immersion blending at a high shear rate followed by a slower mixing utilizing a stir bar. Heat may be used to speed the process but may result on oxidation of the CBD as well as result in off-flavors. MCT oil offers several advantages over other possible carrier oils as it is both colorless and nearly flavorless, and it readily dissolves CBD at concentrations as high as 30%. […]

In the case of `C=C(C)[C@@H]1CCC(C)=C[C@H]1c1c(O)cc(CCCCC)cc1O` [CBD, cannabidiol], the “concentration of CBD readily dissolved in MCT oil” value is reported as no more than 30%.
